Measurements from US20260240851A1, “Treatment of Parkinson's Disease in a Patient Using a Glucocerebrosidase Activator” (BIAL - R&D Investments, S.A., priority 2023, published 2026).
Read-outs that look alike come from different tables or passages of the source.

Assay: LTI-291-002 multiple ascending dose study: plasma and CSF pharmacokinetics
Format: in vivo, human
Experimental: This study was a phase 1, randomized, double-blind, placebo-controlled, multiple ascending dose study of Compound A in 4 cohorts of middle-aged to elderly healthy participants (aged 52 to 75 years). […] A total of 39 healthy subjects were enrolled in 4 sequential cohorts. Subjects in each cohort received once-daily oral doses of 3 mg (n=7), 10 mg (n=8), 30 mg (n=8), or 60 mg (n=8) Compound A or placebo (n=8) for 14 days. Pharmacokinetic parameters were determined for each dose at Day 1, Day 7, and Day 14. Cerebrospinal fluid samples for Compound A concentrations were measured before the first dose and 4 hours after the last dose for each dose level. GluCer, glucosyl sphingosine (GluSph), and lactosyl-ceramide (LacCer) were measured in plasma, PBMCs, and CSF as biomarkers of pharmacological effects. Pharmacodynamic measurements consisted of battery of CNS (NeuroCart®) assessments including Saccadic Eye Movements, Smooth Pursuit Eye Movements, Adaptive Tracking, Body Sway, Visual Verbal Learning Test, and pharmaco-EEG.

[1] = 3 mg daily, dose 1, geometric mean
[2] = 3 mg daily, dose 7, geometric mean
[3] = 3 mg daily, dose 14, geometric mean
[4] = 10 mg daily, dose 1, geometric mean
[5] = 10 mg daily, dose 7, geometric mean
[6] = 10 mg daily, dose 14, geometric mean
[7] = 30 mg daily, dose 1, geometric mean
[8] = 30 mg daily, dose 7, geometric mean
[9] = 30 mg daily, dose 14, geometric mean
[10] = 60 mg daily, dose 1, geometric mean
[11] = 60 mg daily, dose 7, geometric mean
[12] = 60 mg daily, dose 14, geometric mean
[13] = human, plasma, oral, 3 mg, 3 mg daily, dose 1, geometric mean
[14] = human, plasma, oral, 3 mg, 3 mg daily, dose 7, geometric mean
[15] = human, plasma, oral, 3 mg, 3 mg daily, dose 14, geometric mean
[16] = human, plasma, oral, 10 mg, 10 mg daily, dose 1, geometric mean
[17] = human, plasma, oral, 10 mg, 10 mg daily, dose 7, geometric mean
[18] = human, plasma, oral, 10 mg, 10 mg daily, dose 14, geometric mean
[19] = human, plasma, oral, 30 mg, 30 mg daily, dose 1, geometric mean
[20] = human, plasma, oral, 30 mg, 30 mg daily, dose 7, geometric mean
[21] = human, plasma, oral, 30 mg, 30 mg daily, dose 14, geometric mean
[22] = human, plasma, oral, 60 mg, 60 mg daily, dose 1, geometric mean
[23] = human, plasma, oral, 60 mg, 60 mg daily, dose 7, geometric mean
[24] = human, plasma, oral, 60 mg, 60 mg daily, dose 14, geometric mean

SMILES: CCCCCO[C@H]1CC[C@H](NC(=O)c2cnn3c(C)cc(C)nc23)CC1 [Compound A, 5,7-dimethyl-N-((1S*,4S)-4-(pentyloxy)cyclohexyl)pyrazolo[1,5-a]pyrimidine-3-carboxamide]
- AUC0-inf/dose [1]: 818 ng·h/mL/mg
- Cmax/dose [1]: 29.7 ng/mL/mg
- AUC0-inf/dose [2]: 1570 ng·h/mL/mg
- Accumulation Index [2]: 2.45
- Cavg [2]: 80.1 ng/mL
- Cmax/dose [2]: 47.2 ng/mL/mg
- AUC0-inf/dose [3]: 2520 ng·h/mL/mg
- Accumulation Index [3]: 2.78
- Cavg [3]: 115 ng/mL
- Cmax/dose [3]: 51.0 ng/mL/mg
- Fluctuation [3]: 52.9%
- AUC0-inf/dose [4]: 613 ng·h/mL/mg
- Cmax/dose [4]: 30.7 ng/mL/mg
- AUC0-inf/dose [5]: 1780 ng·h/mL/mg
- Accumulation Index [5]: 2.29
- Cavg [5]: 322 ng/mL
- Cmax/dose [5]: 50.5 ng/mL/mg
- AUC0-inf/dose [6]: 1860 ng·h/mL/mg
- Accumulation Index [6]: 2.49
- Cavg [6]: 313 ng/mL
- Cmax/dose [6]: 49.3 ng/mL/mg
- Fluctuation [6]: 76.0%
- AUC0-inf/dose [7]: 753 ng·h/mL/mg
- Cmax/dose [7]: 29.0 ng/mL/mg
- AUC0-inf/dose [8]: 1890 ng·h/mL/mg
- Accumulation Index [8]: 2.11
- Cavg [8]: 1100 ng/mL
- Cmax/dose [8]: 53.3 ng/mL/mg
- AUC0-inf/dose [9]: 4620 ng·h/mL/mg
- Accumulation Index [9]: 5.22
- Cavg [9]: 1090 ng/mL
- Cmax/dose [9]: 50.0 ng/mL/mg
- Fluctuation [9]: 58.1%
- AUC0-inf/dose [10]: 655 ng·h/mL/mg
- Cmax/dose [10]: 32.6 ng/mL/mg
- AUC0-inf/dose [11]: 2310 ng·h/mL/mg
- Accumulation Index [11]: 2.72
- Cavg [11]: 2170 ng/mL
- Cmax/dose [11]: 53.2 ng/mL/mg
- AUC0-inf/dose [12]: 2160 ng·h/mL/mg
- Accumulation Index [12]: 2.53
- Cavg [12]: 2120 ng/mL
- Cmax/dose [12]: 51.2 ng/mL/mg
- Fluctuation [12]: 67.6%
- total exposure (Cmax and AUC0-24) versus dose (3 to 60 mg, after 1st, 7th and 14th dose): increase in a dose proportional manner
- Kp at 4 h (human, CSF and plasma, oral, after the 14th daily dose, across dose levels, read-out: CSF-to-plasma concentration ratio, mean): 0.0122 to 0.0128
- half-life (human, in vivo, oral, multiple doses, read-out: t½ after multiple doses in Trial LTI-291-002): 25 to 35 h
- AUC(0-inf) [13]: 2450 ng·h/mL
- Cmax [13]: 89.1 ng/mL
- AUC(0-t) (human, plasma, oral, 3 mg, 3 mg daily, dose 1, geometric mean, read-out: AUC0-24): 1050 ng·h/mL
- AUC(0-t) (human, plasma, oral, 3 mg, 3 mg daily, dose 1, geometric mean, read-out: AUC0-last): 1040 ng·h/mL
- half-life (human, plasma, oral, 3 mg, 3 mg daily, dose 1, geometric mean, read-out: t½ (converted)): 27.9 h
- AUC(0-inf) [14]: 4720 ng·h/mL
- Cmax [14]: 142 ng/mL
- AUC(0-t) (human, plasma, oral, 3 mg, 3 mg daily, dose 7, geometric mean, read-out: AUC0-24): 1920 ng·h/mL
- AUC(0-t) (human, plasma, oral, 3 mg, 3 mg daily, dose 7, geometric mean, read-out: AUC0-last): 2420 ng·h/mL
- half-life (human, plasma, oral, 3 mg, 3 mg daily, dose 7, geometric mean, read-out: t½ (converted)): 31.3 h
- AUC(0-inf) [15]: 7560 ng·h/mL
- Cmax [15]: 153 ng/mL
- AUC(0-t) (human, plasma, oral, 3 mg, 3 mg daily, dose 14, geometric mean, read-out: AUC0-24): 2770 ng·h/mL
- AUC(0-t) (human, plasma, oral, 3 mg, 3 mg daily, dose 14, geometric mean, read-out: AUC0-last): 4510 ng·h/mL
- half-life (human, plasma, oral, 3 mg, 3 mg daily, dose 14, geometric mean, read-out: t½ (converted)): 36.5 h
- AUC(0-inf) [16]: 6130 ng·h/mL
- Cmax [16]: 307 ng/mL
- AUC(0-t) (human, plasma, oral, 10 mg, 10 mg daily, dose 1, geometric mean, read-out: AUC0-24): 3410 ng·h/mL
- AUC(0-t) (human, plasma, oral, 10 mg, 10 mg daily, dose 1, geometric mean, read-out: AUC0-last): 3380 ng·h/mL
- half-life (human, plasma, oral, 10 mg, 10 mg daily, dose 1, geometric mean, read-out: t½ (converted)): 20.7 h
- AUC(0-inf) [17]: 17800 ng·h/mL
- Cmax [17]: 505 ng/mL
- AUC(0-t) (human, plasma, oral, 10 mg, 10 mg daily, dose 7, geometric mean, read-out: AUC0-24): 7730 ng·h/mL
- AUC(0-t) (human, plasma, oral, 10 mg, 10 mg daily, dose 7, geometric mean, read-out: AUC0-last): 7820 ng·h/mL
- half-life (human, plasma, oral, 10 mg, 10 mg daily, dose 7, geometric mean, read-out: t½ (converted)): 28.7 h
- AUC(0-inf) [18]: 18600 ng·h/mL
- Cmax [18]: 493 ng/mL
- AUC(0-t) (human, plasma, oral, 10 mg, 10 mg daily, dose 14, geometric mean, read-out: AUC0-24): 7510 ng·h/mL
- AUC(0-t) (human, plasma, oral, 10 mg, 10 mg daily, dose 14, geometric mean, read-out: AUC0-last): 11900 ng·h/mL
- half-life (human, plasma, oral, 10 mg, 10 mg daily, dose 14, geometric mean, read-out: t½ (converted)): 32.1 h
- AUC(0-inf) [19]: 22600 ng·h/mL
- Cmax [19]: 869 ng/mL
- AUC(0-t) (human, plasma, oral, 30 mg, 30 mg daily, dose 1, geometric mean, read-out: AUC0-24): 10600 ng·h/mL
- AUC(0-t) (human, plasma, oral, 30 mg, 30 mg daily, dose 1, geometric mean, read-out: AUC0-last): 10400 ng·h/mL
- half-life (human, plasma, oral, 30 mg, 30 mg daily, dose 1, geometric mean, read-out: t½ (converted)): 26 h
- AUC(0-inf) [20]: 56800 ng·h/mL
- Cmax [20]: 1600 ng/mL
- AUC(0-t) (human, plasma, oral, 30 mg, 30 mg daily, dose 7, geometric mean, read-out: AUC0-24): 26500 ng·h/mL
- AUC(0-t) (human, plasma, oral, 30 mg, 30 mg daily, dose 7, geometric mean, read-out: AUC0-last): 26300 ng·h/mL
- half-life (human, plasma, oral, 30 mg, 30 mg daily, dose 7, geometric mean, read-out: t½ (converted)): 25.7 h
- AUC(0-inf) [21]: 139000 ng·h/mL
- Cmax [21]: 1500 ng/mL
- AUC(0-t) (human, plasma, oral, 30 mg, 30 mg daily, dose 14, geometric mean, read-out: AUC0-24): 26200 ng·h/mL
- AUC(0-t) (human, plasma, oral, 30 mg, 30 mg daily, dose 14, geometric mean, read-out: AUC0-last): 45000 ng·h/mL
- half-life (human, plasma, oral, 30 mg, 30 mg daily, dose 14, geometric mean, read-out: t½ (converted)): 75 h
- AUC(0-inf) [22]: 39300 ng·h/mL
- Cmax [22]: 1950 ng/mL
- AUC(0-t) (human, plasma, oral, 60 mg, 60 mg daily, dose 1, geometric mean, read-out: AUC0-24): 19600 ng·h/mL
- AUC(0-t) (human, plasma, oral, 60 mg, 60 mg daily, dose 1, geometric mean, read-out: AUC0-last): 19200 ng·h/mL
- half-life (human, plasma, oral, 60 mg, 60 mg daily, dose 1, geometric mean, read-out: t½ (converted)): 25.1 h
- AUC(0-inf) [23]: 139000 ng·h/mL
- Cmax [23]: 3190 ng/mL
- AUC(0-t) (human, plasma, oral, 60 mg, 60 mg daily, dose 7, geometric mean, read-out: AUC0-24): 52100 ng·h/mL
- AUC(0-t) (human, plasma, oral, 60 mg, 60 mg daily, dose 7, geometric mean, read-out: AUC0-last): 50300 ng·h/mL
- half-life (human, plasma, oral, 60 mg, 60 mg daily, dose 7, geometric mean, read-out: t½ (converted)): 35.8 h
- AUC(0-inf) [24]: 130000 ng·h/mL
- Cmax [24]: 3070 ng/mL
- AUC(0-t) (human, plasma, oral, 60 mg, 60 mg daily, dose 14, geometric mean, read-out: AUC0-24): 50900 ng·h/mL
- AUC(0-t) (human, plasma, oral, 60 mg, 60 mg daily, dose 14, geometric mean, read-out: AUC0-last): 82000 ng·h/mL
- half-life (human, plasma, oral, 60 mg, 60 mg daily, dose 14, geometric mean, read-out: t½ (converted)): 32.9 h
- half-life (human, plasma, oral, after the 1st dose, across dose levels, read-out: mean t1/2): 20.7 to 27.9 h
- half-life (human, plasma, oral, after the 7th dose, across dose levels, read-out: mean t1/2): 25.7 to 35.8 h
- half-life (human, plasma, oral, after the 14th dose, across dose levels, read-out: mean t1/2): 32.1 to 75 h
- steady-state conditions (once-daily dosing): achieved by the 7th daily dose
